Assays:
blackgrass [1] = test: Foliar spread test for upland field; format: in vivo, Alopecurus aegualis; set-up: key: 0 = normal development, 5 = all killed (6 ranks vs. untreated); settings: foliar spray, 500 ppm, 3 weeks, glass house 25° C.
Experimental: (§1) The herbicidal effects are evaluated according to the following 6 ranks as compared with non-treated district. (0: normal development, 1: Less damaged, 2: Slightly damaged, 3: Moderately damaged, 4: Severely damaged, 5: All killed). Incidentally, “-” in the column means not investigated.
(§2) Wagner pots, each having an area of 1/5000 are, were packed with volcanic ash soil and then each seed of corn, soybean, cotton, wheat, solgum, sugar beat, Large crabgrass, barnyardgrjass, green foxtail, blackgrass, annual bluegrass, common lambsquarters, livid amaranth, velvetleaf, morning glory, Xanthium pensylvanicum and Cassia obtusifolia was planted, covered with soil and grown in a glass house at an average temperature of 25° C. for about 2 weeks.
(§3) Each wettable powder of the desired compounds (I) shown in Tables 1 to 21, 24, 25, 28 and 29 prepared in accordance with Example 2 was diluted to 500 ppm with water containing a surfactant (0.5%) and then uniformly sprayed on the above respective plants.
(§4) After these plants were controlled in a glass house at an average temperature of 25° C. for 3 weeks, the herbicidal effects thereof were investigated.
(§5) The herbicidal effects were evaluated according to the evaluation method described in the above (1).

common lambsquarters [2] = test: Foliar spread test for upland field; format: in vivo, Chenopodium album; set-up: key: 0 = normal development, 5 = all killed (6 ranks vs. untreated); settings: foliar spray, 500 ppm, 3 weeks, glass house 25° C.
Experimental: as §1, §2, §3, §4, §5

Large crabgrass [3] = test: Soil treatment test for upland field; format: in vivo, Digitaria adscendens; set-up: key: 0 = normal development, 5 = all killed; settings: 500 g/ha, 3 weeks, glass house 25° C.
Experimental: as §1
(§6) Wagner pots, each having an area of 1/5000 are, were packed with Ube soil (alluvial soil), and then each seed of corn, soybean, cotton, wheat, solgum, sugar beat, Large crabgrass, barnyard grass, green foxtail, blackgrass, annual bluegrass, common lambsquarters, livid amaranth, velvetleaf, morning glory, common Cocklebur (Xanthium strumarium) and sicklepod (Cassia obtusifolia) were planted and covered with soil.
(§7) Each wettable powder of the desired compounds (I) shown in Tables 1 to 21, 24, 25, 28 and 29 prepared in accordance with Example 2 was diluted with water containing a surfactant (0.05%) and uniformly sprayed on the surface of each soil so that an effective concentration of the compound (I) in each herbicide became 500 g/ha.
(§8) These plants were controlled in a glass house at an average temperature of 25° C. for 3 weeks, and then herbicidal effects thereof were investigated.
as §5

morning glory [4] = test: Foliar spread test for upland field; format: in vivo, Ipomoea spps.; set-up: key: 0 = normal development, 5 = all killed (6 ranks vs. untreated); settings: foliar spray, 500 ppm, 3 weeks, glass house 25° C.
Experimental: as §1, §2, §3, §4, §5

annual bluegrass [5] = test: Soil treatment test for upland field; format: in vivo, Poa annua; set-up: key: 0 = normal development, 5 = all killed; settings: 500 g/ha, 3 weeks, glass house 25° C.
Experimental: as §1, §6, §7, §8, §5

livid amaranth [6] = test: Soil treatment test for upland field; format: in vivo, Amaranthus lividus; set-up: key: 0 = normal development, 5 = all killed; settings: 500 g/ha, 3 weeks, glass house 25° C.
Experimental: as §1, §6, §7, §8, §5

velvetleaf [7] = test: Soil treatment test for upland field; format: in vivo, Abutilon theophrasti; set-up: key: 0 = normal development, 5 = all killed; settings: 500 g/ha, 3 weeks, glass house 25° C.
Experimental: as §1, §6, §7, §8, §5

green foxtail [8] = test: Foliar spread test for upland field; format: in vivo, Setaria viridis; set-up: key: 0 = normal development, 5 = all killed (6 ranks vs. untreated); settings: foliar spray, 500 ppm, 3 weeks, glass house 25° C.
Experimental: as §1, §2, §3, §4, §5

morning glory [9] = test: Soil treatment test for upland field; format: in vivo, Ipomoea spps.; set-up: key: 0 = normal development, 5 = all killed; settings: 500 g/ha, 3 weeks, glass house 25° C.
Experimental: as §1, §6, §7, §8, §5

barnyardgrjass = test: Foliar spread test for upland field; format: in vivo, Eschinochloa crusgalli; set-up: key: 0 = normal development, 5 = all killed (6 ranks vs. untreated); settings: foliar spray, 500 ppm, 3 weeks, glass house 25° C.
Experimental: as §1, §2, §3, §4, §5

blackgrass [10] = test: Soil treatment test for upland field; format: in vivo, Alopecurus aegualis; set-up: key: 0 = normal development, 5 = all killed; settings: 500 g/ha, 3 weeks, glass house 25° C.
Experimental: as §1, §6, §7, §8, §5

green foxtail [11] = test: Soil treatment test for upland field; format: in vivo, Setaria viridis; set-up: key: 0 = normal development, 5 = all killed; settings: 500 g/ha, 3 weeks, glass house 25° C.
Experimental: as §1, §6, §7, §8, §5

livid amaranth [12] = test: Foliar spread test for upland field; format: in vivo, Amaranthus lividus; set-up: key: 0 = normal development, 5 = all killed (6 ranks vs. untreated); settings: foliar spray, 500 ppm, 3 weeks, glass house 25° C.
Experimental: as §1, §2, §3, §4, §5

wheat [13] = test: Foliar spread test for upland field; format: in vivo; set-up: key: 0 = normal development, 5 = all killed (6 ranks vs. untreated); settings: foliar spray, 500 ppm, 3 weeks, glass house 25° C.
Experimental: as §1, §2, §3, §4, §5

cotton = test: Foliar spread test for upland field; format: in vivo; set-up: key: 0 = normal development, 5 = all killed (6 ranks vs. untreated); settings: foliar spray, 500 ppm, 3 weeks, glass house 25° C.
Experimental: as §1, §2, §3, §4, §5

solgum [14] = test: Foliar spread test for upland field; format: in vivo; set-up: key: 0 = normal development, 5 = all killed (6 ranks vs. untreated); settings: foliar spray, 500 ppm, 3 weeks, glass house 25° C.
Experimental: as §1, §2, §3, §4, §5

corn [15] = test: Foliar spread test for upland field; format: in vivo; set-up: key: 0 = normal development, 5 = all killed (6 ranks vs. untreated); settings: foliar spray, 500 ppm, 3 weeks, glass house 25° C.
Experimental: as §1, §2, §3, §4, §5

sugar beat [16] = test: Foliar spread test for upland field; format: in vivo; set-up: key: 0 = normal development, 5 = all killed (6 ranks vs. untreated); settings: foliar spray, 500 ppm, 3 weeks, glass house 25° C.
Experimental: as §1, §2, §3, §4, §5

soybean = test: Foliar spread test for upland field; format: in vivo; set-up: key: 0 = normal development, 5 = all killed (6 ranks vs. untreated); settings: foliar spray, 500 ppm, 3 weeks, glass house 25° C.
Experimental: as §1, §2, §3, §4, §5

Large crabgrass [17] = test: Foliar spread test for upland field; format: in vivo, Digitaria adscendens; set-up: key: 0 = normal development, 5 = all killed (6 ranks vs. untreated); settings: foliar spray, 500 ppm, 3 weeks, glass house 25° C.
Experimental: as §1, §2, §3, §4, §5

wheat [18] = test: Soil treatment test for upland field; format: in vivo; set-up: key: 0 = normal development, 5 = all killed; settings: 500 g/ha, 3 weeks, glass house 25° C.
Experimental: as §1, §6, §7, §8, §5

solgum [19] = test: Soil treatment test for upland field; format: in vivo; set-up: key: 0 = normal development, 5 = all killed; settings: 500 g/ha, 3 weeks, glass house 25° C.
Experimental: as §1, §6, §7, §8, §5

corn [20] = test: Soil treatment test for upland field; format: in vivo; set-up: key: 0 = normal development, 5 = all killed; settings: 500 g/ha, 3 weeks, glass house 25° C.
Experimental: as §1, §6, §7, §8, §5

sugar beat [21] = test: Soil treatment test for upland field; format: in vivo; set-up: key: 0 = normal development, 5 = all killed; settings: 500 g/ha, 3 weeks, glass house 25° C.
Experimental: as §1, §6, §7, §8, §5

barnyard grass = test: Soil treatment test for upland field; format: in vivo, Eschinochloa crusgalli; set-up: key: 0 = normal development, 5 = all killed; settings: 500 g/ha, 3 weeks, glass house 25° C.
Experimental: as §1, §6, §7, §8, §5

common lambsquarters [22] = test: Soil treatment test for upland field; format: in vivo, Chenopodium album; set-up: key: 0 = normal development, 5 = all killed; settings: 500 g/ha, 3 weeks, glass house 25° C.
Experimental: as §1, §6, §7, §8, §5

annual bluegrass [23] = test: Foliar spread test for upland field; format: in vivo, Poa annua; set-up: key: 0 = normal development, 5 = all killed (6 ranks vs. untreated); settings: foliar spray, 500 ppm, 3 weeks, glass house 25° C.
Experimental: as §1, §2, §3, §4, §5

velvetleaf [24] = test: Foliar spread test for upland field; format: in vivo, Abutilon theophrasti; set-up: key: 0 = normal development, 5 = all killed (6 ranks vs. untreated); settings: foliar spray, 500 ppm, 3 weeks, glass house 25° C.
Experimental: as §1, §2, §3, §4, §5

Row | SMILES | Effects Blackgrass (blackgrass [1]) | Effects Common lambsquarters (common lambsquarters [2]) | Effects Large crabgrass (Large crabgrass [3]) | Effects Morning glory (morning glory [4]) | Effects Annual bluegrass (annual bluegrass [5]) | Effects Livid amaranth (livid amaranth [6]) | Effects Green foxtail (green foxtail [8]) | Effects Morning glory (morning glory [9]) | Effects Barnyardgrass (barnyardgrjass) | Effects Blackgrass (blackgrass [10]) | Effects Green foxtail (green foxtail [11]) | Effects Livid amaranth (livid amaranth [12]) | Effects Wheat (wheat [13]) | Effects Sotton (cotton) | Effects Solgum (solgum [14]) | Effects Corn (corn [15]) | Effects Sugar beat (sugar beat [16]) | Effects Soybean (soybean) | Effects Large crabgrass (Large crabgrass [17]) | Effects Wheat (wheat [18]) | further results
1 | CCCC(=Cc1cccc(C(F)(F)F)c1)c1nc2cc(F)ccc2o1 [I-c-44] | 3 | 5 | 5 | 5 | 5 | 5 | 4 | 2 | 2 | 5 | 5 | 5 | 2 | 3 | 2 | 2 | 3 | 5 | 4 | 2 | Effects Velvetleaf (velvetleaf [7]): 3; Effects Solgum (solgum [19]): 3; Effects Corn (corn [20]): 2; Effects Sugar beat (sugar beat [21]): 5; Effects Barnyardgrass (barnyard grass): 5; Effects Common lambsquarters (common lambsquarters [22]): 5; Effects Annual bluegrass (annual bluegrass [23]): 4; Effects Velvetleaf (velvetleaf [24]): 2
2 | CCC(=Cc1cccc(C(F)(F)F)c1)c1nc2cc(Br)ccc2o1 [I-c-67] | 4 | 5 | 5 | 5 | 5 | 5 | 4 | 4 | 3 | 5 | 5 | 5 | 2 | 5 | 3 | 3 | 4 | 5 | 4 | 1 | Effects Velvetleaf (velvetleaf [7]): 5; Effects Solgum (solgum [19]): 5; Effects Corn (corn [20]): 2; Effects Sugar beat (sugar beat [21]): 5; Effects Barnyardgrass (barnyard grass): 5; Effects Common lambsquarters (common lambsquarters [22]): 5; Effects Annual bluegrass (annual bluegrass [23]): 4; Effects Velvetleaf (velvetleaf [24]): 4
3 | CCCC(=Cc1cccc(C(F)(F)F)c1)c1nc2cc(Cl)ccc2o1 [I-c-57] | 3 | 5 | 5 | 5 | 5 | 5 | 5 | 3 | 3 | 5 | 5 | 4 | 2 | 4 | 2 | 2 | 3 | 5 | 4 | 2 | Effects Velvetleaf (velvetleaf [7]): 5; Effects Solgum (solgum [19]): 2; Effects Corn (corn [20]): 2; Effects Barnyardgrass (barnyard grass): 5; Effects Common lambsquarters (common lambsquarters [22]): 5; Effects Annual bluegrass (annual bluegrass [23]): 4; Effects Velvetleaf (velvetleaf [24]): 3
4 | CCCC(=Cc1cccc(C(F)(F)F)c1)c1nc2cc(F)c(F)cc2o1 [I-c-113] | 4 | 5 | 5 | 5 | 5 | 5 | 5 | 4 | 3 | 5 | 5 | 5 | 2 | 5 | 3 | 2 | 5 | 5 | 4 | 2 | Effects Velvetleaf (velvetleaf [7]): 5; Effects Solgum (solgum [19]): 2; Effects Corn (corn [20]): 2; Effects Sugar beat (sugar beat [21]): 5; Effects Barnyardgrass (barnyard grass): 5; Effects Common lambsquarters (common lambsquarters [22]): 5; Effects Annual bluegrass (annual bluegrass [23]): 4; Effects Velvetleaf (velvetleaf [24]): 4
5 | CC(=Cc1cccc(C(F)(F)F)c1)c1nc2cc(Cl)ccc2o1 [I-c-53] | 4 | 5 | 5 | 5 | 5 | 5 | 5 | 2 | 1 | 5 | 5 | 5 | 1 | 3 | 1 | 3 | 5 | 4 | 4 | 1 | Effects Velvetleaf (velvetleaf [7]): 1; Effects Solgum (solgum [19]): 0; Effects Corn (corn [20]): 1; Effects Sugar beat (sugar beat [21]): 5; Effects Barnyardgrass (barnyard grass): 5; Effects Common lambsquarters (common lambsquarters [22]): 5; Effects Annual bluegrass (annual bluegrass [23]): 4; Effects Velvetleaf (velvetleaf [24]): 3
6 | CC(=Cc1cccc(C(F)(F)F)c1)c1nc2cc(F)ccc2o1 [I-c-40] | 2 | 4 | 5 | 3 | 5 | 5 | 2 | 3 | 1 | 4 | 5 | 4 | 1 | 1 | 1 | 2 | 4 | 4 | 3 | 0 | Effects Solgum (solgum [19]): 2; Effects Corn (corn [20]): 0; Effects Sugar beat (sugar beat [21]): 1; Effects Barnyardgrass (barnyard grass): 5; Effects Common lambsquarters (common lambsquarters [22]): 5; Effects Annual bluegrass (annual bluegrass [23]): 2; Effects Velvetleaf (velvetleaf [24]): 1
